What was measured:
LPA2 receptor = LPA2 receptor (Homo sapiens, UniProt Q9HBW0); assay: LPA2 receptor agonist activity (EC50, Emax); format: cell-based; settings: for LPA2 (Emax): value in parentheses
CFTR = assay: Iodide efflux measurements in Calu-3 cells; format: cell-based, human; settings: for CFTR activity, peak iodide efflux in response to adenosine: adenosine as CFTR agonist, FIG. 2C
[1] = tested on: CTX-induced Cl- secretion; format: in vivo, C57BL/6 mice; settings: 6 hours
CFTR Cl- channel [2] = assay: Short-circuit current (Isc) in polarized HT29-CL19A monolayers; format: cell-based, human; settings: HT29 cells; LPA (20:4) pretreatment 30 min; FIG. 2E
Experimental: (§1) Calu-3 and HT29-CL19A polarized cell monolayers were grown to confluency on Costar Transwell permeable supports (filter area is 0.33 cm^2). Filters were mounted in an Ussing chamber, and short-circuit currents (Isc) mediated through CFTR Cl^− channel were carried out as described previously (31). Epithelia were bathed in Ringer's solution (mM) (serosal/basolateral: 140 NaCl^−, 5 KCl, 0.36 K2HPO4, 0.44 KH2PO4, 1.3 CaCl2, 0.5 MgCk2, 4.2 NaHCO3, 10 Hepes, 10 glucose, pH 7.2, [Cl^−]=149), and low Cl-Ringer's solution (mM) (luminal/apical: 133.3 Na-gluconate, 5 K-gluconate, 2.5 NaCl, 0.36 K2HPO4, 0.44 KH2PO4, 5.7 CaCl2, 0.5 MgCl2, 4.2 NaHCO3, 10 Hepes, 10 mannitol, pH 7.2, [Cl^−]=14.8) at 37° C., gassed with 95% O2 and 5%) […] CO2. LPA (20:4) was added into both the luminal (apical) side and serosal (basolateral) side of the cell monolayers for 30 min before adenosine (ADO) was added into the luminal/apical side. […]

[3] = tested on: CTX-induced intestinal fluid secretion; format: in vivo, CD1 mice
CFTR Cl- channel [4] = assay: Short-circuit current (Isc) in isolated mouse intestine; settings: isolated mouse intestine pretreated with LPA (20:4); dose-dependent; FIG. 2G, 2H
Experimental: as §1

CFTR Cl- channel [5] = assay: Short-circuit current (Isc) in polarized Calu-3 monolayers; format: cell-based, human
Experimental: as §1

NHERF2 = target: T1, NHERF2 (Homo sapiens, UniProt Q15599); assay: NHERF2 binding to LPA2 in the presence of LPA2-specific peptide; settings: FIG. 4H
T1 construct: GST
T1 sequence (Q15599 whole entry): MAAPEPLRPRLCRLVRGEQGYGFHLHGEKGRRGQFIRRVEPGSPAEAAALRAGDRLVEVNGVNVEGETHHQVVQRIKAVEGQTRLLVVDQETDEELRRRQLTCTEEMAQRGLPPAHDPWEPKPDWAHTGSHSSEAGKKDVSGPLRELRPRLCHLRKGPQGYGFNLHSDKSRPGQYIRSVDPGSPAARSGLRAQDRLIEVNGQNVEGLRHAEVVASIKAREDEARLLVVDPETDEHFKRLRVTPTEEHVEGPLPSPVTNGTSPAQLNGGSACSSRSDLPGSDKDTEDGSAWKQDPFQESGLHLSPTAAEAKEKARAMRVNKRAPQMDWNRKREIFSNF
Experimental: This assay (34) was performed using maltose binding protein (MBP)-CFTR-C tail fusion protein (1 μM) immobilized on amylose beads (20 μl) and incubated with GST-NHERF2. This step, which is called pairwise binding, was done in 200 μl of lysis buffer (PBS-0.2% Triton-X 100+protease inhibitors) and mixed at 22° C. for 2 h. The complex was washed once with the same buffer and allowed to bind Flag-tagged LPA2 from lysates of BHK cells expressing the receptor. The binding was done at 4° C. for 3 h with constant mixing. The complex was washed with lysis buffer, eluted with sample buffer, and analyzed by immunoblotting using anti-Flag monoclonal antibody.

Sequence of LPA2 receptor (Q9HBW0 whole entry): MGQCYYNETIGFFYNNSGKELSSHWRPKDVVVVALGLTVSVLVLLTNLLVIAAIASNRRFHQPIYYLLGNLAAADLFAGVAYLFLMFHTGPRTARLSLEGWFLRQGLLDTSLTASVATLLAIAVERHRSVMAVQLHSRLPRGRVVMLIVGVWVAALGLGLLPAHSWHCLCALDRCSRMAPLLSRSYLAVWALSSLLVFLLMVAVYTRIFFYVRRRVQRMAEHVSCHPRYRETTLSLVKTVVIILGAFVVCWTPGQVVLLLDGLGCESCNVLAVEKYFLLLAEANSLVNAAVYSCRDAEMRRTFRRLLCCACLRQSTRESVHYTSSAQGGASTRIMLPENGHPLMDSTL

Molecule: CCCC/C=C\CCCCCCCCOP(=O)(O)O [Phosphoric acid monotetradec-9-enyl ester]
- EC50 (LPA2 receptor; Table 1): 397 nM
- LPA2 (Emax) (LPA2 receptor; Table 1): 58

Molecule: CC=CCC=CCC=CCCCCCCCCC1OCC(COP(=O)(O)O)O1.[K] (stereo not drawn) [Mono potassium phosphoric acid O-(2-heptadec-9,12,15-trienyl-(1,3)-dioxolan-4-ylmethyl) ester]
- EC50 (LPA2 receptor; Table 2): 1710 nM
- LPA2 (Emax) (LPA2 receptor; Table 2): 51

Molecule: CCCCCCCCCCCCOP(=O)(O)O [Phosphoric acid monododecyl ester]
- EC50 (LPA2 receptor; Table 1): 3100 nM
- LPA2 (Emax) (LPA2 receptor; Table 1): 50

Molecule: CC/C=C\CCCCCCCCCCOP(=O)(O)O [Phosphoric acid monotetradec-11-enyl ester]
- EC50 (LPA2 receptor; Table 1): 4100 nM
- LPA2 (Emax) (LPA2 receptor; Table 1): 75

Molecule: CCCCCCCCCCCCOP(O)(O)=S [Thiophosphoric acid O- dodecyl ester]
- binding to the LPA2 receptor and thereby inhibiting CFTR activation (LPA2 receptor): particularly effective
- EC50 (LPA2 receptor; Table 1): 1000 nM
- LPA2 (Emax) (LPA2 receptor; Table 1): 100

Molecule: CCCCCCCCOC[C@H](COP(O)(O)=S)OCCCCCCCC [(R)-Thiophosphoric acid O-(2,3-bis-octyloxy-propyl) ester]
- EC50 (LPA2 receptor; Table 1): 5720 nM
- LPA2 (Emax) (LPA2 receptor; Table 1): 27

Molecule: pertussis toxin [PTX]
- reversal of LPA-dependent inhibition of CFTR function (iodide efflux) (CFTR; Calu-3 cells pretreated with PTX 100 or 200 ng/ml for 24 h): reversed LPA-dependent inhibition of CFTR function in a dose-dependent fashion

Molecule: CCCCCCCC(=O)OC[C@@H](COP(O)(O)=S)OC(=O)CCCCCCC [(S)-Octanoic acid 1-octanoyloxymethyl-2-thiophosphonooxy-ethyl ester]
- LPA2 (Emax) (LPA2 receptor; Table 1): 17

Molecule: CC/C=C\CCCCCCCCOP(=O)(O)O [Phosphoric acid monododec-9-enyl ester]
- EC50 (LPA2 receptor; Table 1): 717 nM
- LPA2 (Emax) (LPA2 receptor; Table 1): 78

Molecule: CCCCCCCCCCOP(O)(O)=S [Thiophosphoric acid O- decyl ester]
- EC50 (LPA2 receptor; Table 1): 4570 nM
- LPA2 (Emax) (LPA2 receptor; Table 1): 100

Molecule: CCCCCCCC/C=C\CCCCCCCCOP(O)(O)=S [FAP 18:1d9, fatty alcohol thiophosphate 18:1d9]
- intestinal fluid accumulation [1]: significantly reduced
- ratio of intestinal weight before to after luminal fluid removal [1]: statistically significant reduction

Molecule: CCCC/C=C\CCCCCCCCOP(O)(O)=S [Thiophosphoric acid O-tetradec-9-enyl ester]
- binding to the LPA2 receptor and thereby inhibiting CFTR activation (LPA2 receptor): particularly effective
- EC50 (LPA2 receptor; Table 1): 480 nM
- LPA2 (Emax) (LPA2 receptor; Table 1): 150

Molecule: lysophosphatidic acid [LPA]
- CFTR-dependent Cl- currents (Isc) in response to adenosine (CFTR Cl- channel [2]): significantly inhibited
- CTX-elicited CFTR-dependent intestinal fluid secretion (ileal loop weight) ([3]; 6 h): significantly reducing fluid accumulation to the level of PBS control loops
- fluid accumulation in toxin-treated intestinal loops ([3]; mouse, in vivo): efficiently reduced the fluid accumulation
- ratio of intestinal weight before to after luminal fluid removal [1]: statistically significant reduction
- effect of LPA alone on CFTR channel function (iodide efflux) (CFTR; Calu-3 cells, LPA alone, no cpt-cAMP): had no effect
- CFTR activity, peak iodide efflux in response to adenosine (CFTR; Calu-3 cells): dose-dependent inhibition
- response of Calu-3 cells to cpt-cAMP stimulation (iodide efflux) (CFTR; LPA pretreatment, FIG. 2A: LPA 18:1 (20 μM), cpt-cAMP 200 μM): reduced the response
- Isc in response to cpt-cAMP stimulation (CFTR Cl- channel [4]): inhibited
- CFTR-dependent Cl- currents (Isc) in response to adenosine (CFTR Cl- channel [5]; Calu-3 cells, LPA pretreatment 30 min, FIG. 2F): significantly inhibited

Molecule: phosphatidic acid [PA]
- CFTR activity, peak iodide efflux in response to adenosine (CFTR; Calu-3 cells): did not show any significant effect

Molecule: CC/C=C\CCCCCCCCOP(O)(O)=S [drawing 10, Thiophosphoric acid O-dodec-9-enyl ester]
- binding to the LPA2 receptor and thereby inhibiting CFTR activation (LPA2 receptor): particularly effective
- EC50 (LPA2 receptor; Table 1): 677 nM
- LPA2 (Emax) (LPA2 receptor; Table 1): 100

Molecule: CCCCCCCC=CCCCCCCCC[C@H]1OC[C@@H](COP([O-])(O)=S)O1.[K+] [(2S,4S) Mono potassium thiophosphoric acid O-(2-heptadec-9-enyl-(1,3)-dioxolan-4-ylmethyl) ester]
- EC50 (LPA2 receptor; Table 2): 1320 nM
- LPA2 (Emax) (LPA2 receptor; Table 2): 87

Molecule: CCCCCCCC(=O)OC[C@H](COP(O)(O)=S)OC(=O)CCCCCCC [(R)-Octanoic acid 1-octanoyloxymethyl-2-thiophosphonooxy-ethyl ester]
- LPA2 (Emax) (LPA2 receptor; Table 1): 58

Molecule: LPA2-specific peptide: peptide containing the PDZ motif of LPA2 (last 11 amino acids; a.a. 341 to 351, ENGHPLMDSTL)
- competition with LPA2 for binding to NHERF2 (NHERF2): could compete with LPA2 for binding to NHERF2 in a dose-dependent manner
- reversal of LPA-elicited inhibition on CFTR-dependent Cl- currents (Isc) (CFTR Cl- channel [5]; peptide delivered with Chariot, 25 μM LPA (20:4) 30 min, adenosine 0-20 μM, FIG. 4F): significantly reversed

Molecule: CCCCCCCC=CCCCCCCCCC1OCC(COP(O)(O)=S)O1.[K] (stereo not drawn) [Mono potassium thiophosphoric acid O-(2-heptadec-9-enyl-(1,3)-dioxolan-4-ylmethyl) ester]
- EC50 (LPA2 receptor; Table 2): 1170 nM
- LPA2 (Emax) (LPA2 receptor; Table 2): 87

Molecule: CCCCCCCC/C=C\CCCCCCCC(=O)OC[C@@H](O)COP(=O)(O)O [LPA 18:1]
- rank order of inhibition of peak iodide efflux in response to adenosine (CFTR; Calu-3 cells, […], FIG. 2D): LPA 20:4>LPA 18:2>LPA 18:1

Molecule: CCCCCCCCCCCCCCOP(O)(O)=S [Thiophosphoric acid O- tetradecyl ester]
- binding to the LPA2 receptor and thereby inhibiting CFTR activation (LPA2 receptor): particularly effective
- EC50 (LPA2 receptor; Table 1): 2500 nM
- LPA2 (Emax) (LPA2 receptor; Table 1): 100

Molecule: CCCCCCCC/C=C\CCCCCCCCOP(O)(O)=S [drawing 12, Thiophosphoric acid O-octadec-9-enyl ester]
- binding to the LPA2 receptor and thereby inhibiting CFTR activation (LPA2 receptor): particularly effective
- EC50 (LPA2 receptor; Table 1): 244 nM
- LPA2 (Emax) (LPA2 receptor; Table 1): 175

Molecule: C=CCCCCCCCCOP(=O)(O)O [Phosphoric acid monodec-9-enyl ester]
- EC50 (LPA2 receptor; Table 1): 3800 nM
- LPA2 (Emax) (LPA2 receptor; Table 1): 100

Molecule: CCCCCCCC=CCCCCCCCC[C@@H]1OC[C@H](COP([O-])(O)=S)O1.[K+] [(2R,4R) Mono potassium thiophosphoric acid O-(2-heptadec-9-enyl-(1,3)-dioxolan-4-ylmethyl) ester]
- EC50 (LPA2 receptor; Table 2): 1090 nM
- LPA2 (Emax) (LPA2 receptor; Table 2): 85

Molecule: CCCCCCCCCCOP(=O)(O)O [Phosphoric acid monodecyl]
- EC50 (LPA2 receptor; Table 1): 1800 nM
- LPA2 (Emax) (LPA2 receptor; Table 1): 82

Molecule: CCCCCCCC=CCCCCCCCC[C@@H]1OC[C@@H](COP([O-])(O)=S)O1.[K+] [(2R,4S) Mono potassium thiophosphoric acid O-(2-heptadec-9-enyl-(1,3)-dioxolan-4-ylmethyl) ester]
- EC50 (LPA2 receptor; Table 2): 1540 nM
- LPA2 (Emax) (LPA2 receptor; Table 2): 72

Molecule: CCCCCCCC=CCCCCCCCC[C@@H]1OC[C@H](COP(=O)([O-])O)O1.[K+] [(2R,4R) Mono potassium phosphoric acid O-(2-heptadec-9-enyl-(1,3)-dioxolan-4-ylmethyl) ester]
- EC50 (LPA2 receptor; Table 2): 1710 nM
- LPA2 (Emax) (LPA2 receptor; Table 2): 42

Molecule: CCCCCCCC=CCCCCCCCC[C@H]1OC[C@H](COP([O-])(O)=S)O1.[K+] [(2S,4R) Mono potassium thiophosphoric acid O-(2-heptadec-9-enyl-(1,3)-dioxolan-4-ylmethyl) ester]
- EC50 (LPA2 receptor; Table 2): 1300 nM
- LPA2 (Emax) (LPA2 receptor; Table 2): 77

— patent publication US20070078111A1, “LPA2 receptor agonist inhibitors of CFTR” (priority 2005, published 2007)
